Experimental data reported in US10426753B2, “Supramolecular combinatorial therapeutics” (INVICTUS ONCOLOGY PVT. LTD., priority 2014, dated 2019).

Experiments:
Assay type in all cases: cell-based
Conditions in all cases: 48, 72 and 96 hrs, supramolecular taxane conjugate
[1] = test system: A549; test: Cell viability assay (MTT), lung cancer cell line
Experimental: (§1) Mammalian cells were grown in specific culture media, supplemented with 10% fetal bovine serum (FBS) and antibiotics in a humidified environment containing 5% CO2 at 37° C.
(§2) The effects of supramolecular taxane conjugates on the viability of cancer cells were measured using MTT assay (^6,7,8). Cells in 100 μl culture-media were plated in 96-well plates (3000-5000 cells/well) and allowed to adhere overnight in a humidified environment containing 5% CO2 at 37° C. Fresh media (100 μL) containing different concentrations of compounds were added to cells and incubated for 48, 72 and 96 hrs. Following incubation, cell viability was determined using the MTT assay. Similar assay was performed on normal human epithelial cells seeded in 100 μl media in 96-well plate (5000-10,000 cells per well), under identical incubation time and dosage of compounds, used for cancer cells to determine the effect of this targeted therapy on normal cells. The cell viability was plotted as dose-response curves using curve fitting.
(§3) The effects of compounds (New taxane 2 and 16) were evaluated in vitro in comparison with standard taxanes in breast cancer (MDA-MB-231), ovarian cancer (SKOV-3), lung cancer (A549), prostate cancer (DU-145), and colorectal cancer (HCT-116) cell lines.

[2] = test system: SKOV-3; test: Cell viability assay (MTT), ovarian cancer cell line
Experimental: as §1, §2, §3

[3] = test system: HCT-116; test: Cell viability assay (MTT), colorectal cancer cell line
Experimental: as §1, §2, §3

[4] = test system: MDA-MB-231; test: Cell viability assay (MTT), breast cancer cell line
Experimental: as §1, §2, §3

[5] = test system: DU-145; test: Cell viability assay (MTT), prostate cancer cell line
Experimental: as §1, §2, §3

Measured: efficacy on cell viability versus standard taxanes

CO[C@H]1C(=O)[C@]2(C)[C@@H](OC)C[C@H]3OC[C@@]3(OC(C)=O)[C@H]2[C@H](OC(=O)c2ccccc2)[C@]2(O)C[C@H](OC(=O)[C@H](OC(=O)CCC(=O)NCC(=O)O[C@H]3CC[C@@]4(C)C(=CCC5C4CC[C@@]4(C)C5CC[C@@H]4[C@H](C)CCCC(C)C)C3)[C@@H](NC(=O)OC(C)(C)C)c3ccccc3)C(C)=C1C2(C)C (stereo partly shown) [compound 2]
comparable efficacy to standard taxanes: all assays above

CC(=O)O[C@H]1C(=O)[C@@]2(C)[C@H]([C@H](OC(=O)c3ccccc3)[C@]3(O)C[C@H](OC(=O)[C@H](OC(=O)CCC(=O)NCC(=O)O[C@H]4CC[C@@]5(C)C(=CCC6C5CC[C@@]5(C)C6CC[C@@H]5[C@H](C)CCCC(C)C)C4)[C@@H](NC(=O)c4ccccc4)c4ccccc4)C(C)=C1C3(C)C)[C@]1(OC(C)=O)CO[C@@H]1C[C@@H]2O (stereo partly shown) [compound 16]
comparable efficacy to standard taxanes: all assays above
